Laboratory results published in patent US12459951B2, “Compounds that interact with RAS superfamily proteins for treatment of cancers, inflammatory diseases, rasopathies, and fibrotic disease” (SHY Therapeutics, LLC, priority 2022, dated 2025).

Columns and labels:
Erk1/2 phosphorylation = experiment: Erk1/2 Phosphorylation Assay (western blot), Panc-1; assay type: cell-based, human; settings: at 10 μM, * = activation
Summary of the method: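 KRas G12D Panc-1 cells were treated 6 h at 37° C with compound at 10 μM or serial dilutions for IC50 (0.3% DMSO). In method 1, cells were serum-starved overnight (0.5% FBS) and then given 1.5 ng/ml EGF for 15 min. In method 2, cells stayed in 10% FBS without stimulation. Lysate phospho-Erk1/2 (Thr202/Tyr204) was read by western blot.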

JNK phosphorylation = experiment: JNK Activation Assay (western blot), Panc-1; assay type: cell-based, human; settings: at 10 μM, Panc-1 pancreatic cancer cell line; starred symbols = activation
Summary of the method: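 KRas G12C Panc-1 cells treated 6 h at 37 °C with compound at 10 μM (0.3% DMSO), or serial dilutions for IC50. In Method 1 cells were serum-starved overnight (0.5% FBS) then stimulated with 1.5 ng/ml EGF for 15 min; Method 2 used 10% FBS without stimulation. Phospho-JNK (Thr183/Tyr185) measured by western blot.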

COc1cccc(-c2cn3nc(-c4nccn4C)nc(N[C@@H]4CC[C@@H](OC)C4)c3c2-c2ccccc2)c1F (racemic) [Compound 43, rac 6-(2-Fluoro-3-methoxyphenyl)-N-((1R,3R)-3-methoxycyclopentyl)-2-(1-methyl-1H-imidazol-2-yl)-5-phenylpyrrolo[2,1-f][1,2,4]triazin-4-amine]
% inh of Erk1/2 phosphorylation in Panc-1 (Erk1/2 phosphorylation): D (85-100% inhibition) | % inh of JNK in Panc-1 (JNK phosphorylation): H* (H* ≥ 100% activation)

Cc1c(-c2ccn(C(C)C)n2)cn2nc(-c3nccn3C)nc(Nc3ncccn3)c12 [Compound 54, 6-(1-Isopropyl-1H-pyrazol-3-yl)-5-methyl-2-(1-methyl-1H-imidazol-2-yl)-N-(pyrimidin-2-yl)pyrrolo[2,1-f][1,2,4]triazin-4-amine]
% inh of Erk1/2 phosphorylation in Panc-1 (Erk1/2 phosphorylation): C (50-84% inhibition) | % inh of JNK in Panc-1 (JNK phosphorylation): H* (H* ≥ 100% activation)

COCCO[C@H]1C[C@H](Nc2nc(-c3nccn3C)nn3cc(-c4cccc(OC)c4F)c(-c4ccccc4)c23)C1 [Compound 44, 6-(2-Fluoro-3-methoxyphenyl)-N-((1r,3r)-3-(2-methoxyethoxy)cyclobutyl)-2-(1-methyl-1H-imidazol-2-yl)-5-phenylpyrrolo[2,1-f][1,2,4]triazin-4-amine]
% inh of Erk1/2 phosphorylation in Panc-1 (Erk1/2 phosphorylation): B (26-49% inhibition) | % inh of JNK in Panc-1 (JNK phosphorylation): H* (H* ≥ 100% activation)

COc1cccc(-c2cn3nc(-c4nccn4C)nc(N[C@H]4C[C@H](OC)C4)c3c2-c2ccccc2)c1Cl [Compound 32, 6-(2-Chloro-3-methoxyphenyl)-N-((1r,3r)-3-methoxycyclobutyl)-2-(1-methyl-1H-imidazol-2-yl)-5-phenylpyrrolo[2,1-f][1,2,4]triazin-4-amine]
% inh of Erk1/2 phosphorylation in Panc-1 (Erk1/2 phosphorylation): D (85-100% inhibition) | % inh of JNK in Panc-1 (JNK phosphorylation): H (H = 100% inhibition)

COc1ccc(Nc2nc(-c3nccn3C)nn3cc(-c4ccn(C(C)C)n4)c(C)c23)cn1 [Compound 71, 6-(1-Isopropyl-1H-pyrazol-3-yl)-N-(6-methoxypyridin-3-yl)-5-methyl-2-(1-methyl-1H-imidazol-2-yl)pyrrolo[2,1-f][1,2,4]triazin-4-amine]
% inh of Erk1/2 phosphorylation in Panc-1 (Erk1/2 phosphorylation): D* (85-100% activation) | % inh of JNK in Panc-1 (JNK phosphorylation): H* (H* ≥ 100% activation)

COc1ccnc(Nc2nc(-c3nccn3C)nn3cc(-c4ccn(C(C)C)n4)c(C)c23)c1 [Compound 58, 6-(1-Isopropyl-1H-pyrazol-3-yl)-N-(4-methoxypyridin-2-yl)-5-methyl-2-(1-methyl-1H-imidazol-2-yl)pyrrolo[2,1-f][1,2,4]triazin-4-amine]
% inh of Erk1/2 phosphorylation in Panc-1 (Erk1/2 phosphorylation): D (85-100% inhibition) | % inh of JNK in Panc-1 (JNK phosphorylation): H* (H* ≥ 100% activation)

COc1cccc(-c2cn3nc(-c4nccn4C)nc(N[C@H]4C[C@H](OC)C4)c3c2-c2ccn(C)n2)c1F [Compound 47, 6-(2-Fluoro-3-methoxyphenyl)-N-((1r,3r)-3-methoxycyclobutyl)-2-(1-methyl-1H-imidazol-2-yl)-5-(1-methyl-1H-pyrazol-3-yl)pyrrolo[2,1-f][1,2,4]triazin-4-amine]
% inh of Erk1/2 phosphorylation in Panc-1 (Erk1/2 phosphorylation): C (50-84% inhibition) | % inh of JNK in Panc-1 (JNK phosphorylation): H* (H* ≥ 100% activation)

COc1cccc(Nc2nc(-c3nccn3C)nn3cc(-c4ccn(C(C)C)n4)c(-c4ccccc4)c23)n1 [Compound 23, 6-(1-Isopropyl-1H-pyrazol-3-yl)-N-(6-methoxypyridin-2-yl)-2-(1-methyl-1H-imidazol-2-yl)-5-phenylpyrrolo[2,1-f][1,2,4]triazin-4-amine]
% inh of Erk1/2 phosphorylation in Panc-1 (Erk1/2 phosphorylation): D (85-100% inhibition) | % inh of JNK in Panc-1 (JNK phosphorylation): H* (H* ≥ 100% activation)

COc1cccc(-c2cn3nc(-c4nccn4C)nc(N[C@H]4C[C@H](OC)C4)c3c2-c2ccccn2)c1F [Compound 45, 6-(2-Fluoro-3-methoxyphenyl)-N-((1r,3r)-3-methoxycyclobutyl)-2-(1-methyl-1H-imidazol-2-yl)-5-(pyridin-2-yl)pyrrolo[2,1-f][1,2,4]triazin-4-amine]
% inh of Erk1/2 phosphorylation in Panc-1 (Erk1/2 phosphorylation): 0 (0% inhibition) | % inh of JNK in Panc-1 (JNK phosphorylation): H* (H* ≥ 100% activation)

COc1cc(Nc2nc(-c3nccn3C)nn3cc(-c4ccn(C)n4)c(C)c23)ncn1 [Compound 63, N-(6-Methoxypyrimidin-4-yl)-5-methyl-2-(1-methyl-1H-imidazol-2-yl)-6-(1-methyl-1H-pyrazol-3-yl)pyrrolo[2,1-f][1,2,4]triazin-4-amine]
% inh of Erk1/2 phosphorylation in Panc-1 (Erk1/2 phosphorylation): A (1-25% inhibition) | % inh of JNK in Panc-1 (JNK phosphorylation): H* (H* ≥ 100% activation)

Cc1c(-c2ccn(C(C)C)n2)cn2nc(-c3nccn3C)nc(Nc3ccn(C(C)C)n3)c12 [Compound 72, N,6-bis(1-Isopropyl-1H-pyrazol-3-yl)-5-methyl-2-(1-methyl-1H-imidazol-2-yl)pyrrolo[2,1-f][1,2,4]triazin-4-amine]
% inh of Erk1/2 phosphorylation in Panc-1 (Erk1/2 phosphorylation): D* (85-100% activation) | % inh of JNK in Panc-1 (JNK phosphorylation): H* (H* ≥ 100% activation)

Cc1c(-c2ccn(C(C)C)n2)cn2nc(-c3nccn3C)nc(Nc3nnc(C4CC4)o3)c12 [Compound 67, 5-Cyclopropyl-N-(6-(1-isopropyl-1H-pyrazol-3-yl)-5-methyl-2-(1-methyl-1H-imidazol-2-yl)pyrrolo[2,1-f][1,2,4]triazin-4-yl)-1,3,4-oxadiazol-2-amine]
% inh of Erk1/2 phosphorylation in Panc-1 (Erk1/2 phosphorylation): D (85-100% inhibition) | % inh of JNK in Panc-1 (JNK phosphorylation): H* (H* ≥ 100% activation)

COCCNc1nc(-c2nccn2C)nn2cc(-c3ccn(C(C)C)n3)c(C(C)C)c12 [Compound 35, 5-Isopropyl-6-(1-isopropyl-1H-pyrazol-3-yl)-N-(2-methoxyethyl)-2-(1-methyl-1H-imidazol-2-yl)pyrrolo[2,1-f][1,2,4]triazin-4-amine]
% inh of Erk1/2 phosphorylation in Panc-1 (Erk1/2 phosphorylation): 0 (0% inhibition) | % inh of JNK in Panc-1 (JNK phosphorylation): H* (H* ≥ 100% activation)
